In US20020025943A1, “Nucleoside analog compositions and uses thereof” (priority 1997, published 2002):
Read-outs that look alike come from different tables or passages of the source.

What was measured:
[1] = system: HIV-1 (RF strain); assay: NCI AIDS antiviral screen: inhibition of HIV-1 cytopathicity in T4 lymphocytes (CEM line), XTT viability; assay type: cell-based; settings: for EC50: NCI screen, mean value
Experimental: Three DHA-ddC (compounds 8, 9, and 10 above) and one DHA-AZT conjugate (the compound described above) were sent to the National Cancer Institute's AIDS antiviral screen to test their anti-HIV activity in vitro. The compounds were provided as solutions in ethanol. The vials containing the conjugates were sealed under argon to prevent oxygen from possibly degrading the conjugates. Instructions were provided to store the vials containing the conjugates at 4° C. and to open the vials immediately before use.
The primary screen used by the NCI for anti-HIV activity utilizes the cytopathicity of HIV-1 for human T4 lymphocytes and the inhibition of such killing by drugs that inhibit viral cytotoxicity. The experimental protocols are described by Weislow et al., (J. Natl. Cancer Inst. 81:577-586, 1989) and Bader (, whose contents are incorporated herein by reference. Briefly, the compounds are diluted first in DMSO or other appropriate solvent, then diluted 1:100 in cell culture medium before preparing serial half log10 dilutions. T4 lymphocytes (CEM line) are added, and after a brief interval HIV-1 (RF strain) is added. Appropriate controls (infected and uninfected cells without compound, and non-infected cells with the compound) are included in the plate format. The cultures are incubated at 37° C. for six days during which time the cells proliferate, the virus reproduces and kills the cells. Cell viability is measured by the ability of cells to convert a colorless tetrazolium salt (XTT) to a highly colored soluble formazan. The intensity of the color is read in a spectrophotometer using an automated system. The wells are also examined microscopically to confirm the protective activity of the compounds.

[2] = system: HIV in human T4 cells; assay: Anti-HIV experiments performed at the Southern Research Institute (SRI); assay type: cell-based; settings: for Fold Increase in Potency: SRI, Control/Expt, relative to the parent drug (AZT or ddC)
From the text: The results of the experiments performed at SRI are shown in Table 2; the results were expressed in terms of inhibitory concentration
These in vitro data in human cells establish that conjugating ddC drugs to DHA achieves higher activity (between >5400 fold to 55 to 13 fold) against HIV in human T4 cells. In particular, conjugation of DHA to ddC drugs at the pyrimidine ring of ddC rather than the pentose ring is preferred based upon the unexpected results of the foregoing assays.

[3] = Human immunodeficiency virus 1, SRI experiments, read-out: Inhibitory Concentration
[4] = Human immunodeficiency virus 1, Lymphocyte
[5] = SRI experiments, read-out: Inhibitory Concentration

SMILES	IC50 [2, 3] [nM]	Fold Increase in Potency [2] [fold]	EC50 [1, 4] [nM]	IC50 [2, 5] [nM]	also measured
CC/C=C\C/C=C\C/C=C\C/C=C\C/C=C\C/C=C\CCC(=O)Nc1ccn([C@H]2CC[C@@H](CO)O2)c(=O)n1 [DHA-ddC 8]	6.93	54.8			Fold Increase in Potency over ddC ([1]; mean EC50 for ddC (moles/L) divided by EC50 of the conjugate (moles/L)): >3807 fold
Cc1cn([C@H]2CC(N=[N+]=[N-])[C@@H](CO)O2)c(=O)[nH]c1=O (stereo partly drawn) [AZT, reference compound]	100	1.0	17.7		
CC/C=C\C/C=C\C/C=C\C/C=C\C/C=C\C/C=C\CCC(=O)OC[C@@H]1CC[C@H](n2ccc(N)nc2=O)O1 [DHA-ddC 10]		38		10	
CC/C=C\C/C=C\C/C=C\C/C=C\C/C=C\C/C=C\CCC(=O)OC[C@H]1O[C@@H](n2cc(C)c(=O)[nH]c2=O)C[C@@H]1N=[N+]=[N-] [DHA-AZT]		1.7		60	EC50 [1]: 26.2 nM; anti-HIV activity of the conjugate relative to that of the parent drug, AZT ([1]; NCI studies): did not alter the anti-HIV activity; activity relative to AZT alone ([2]; same assays as the DHA-ddC conjugates): not increased
Nc1ccn([C@H]2CC[C@@H](CO)O2)c(=O)n1 [ddC, 2′,3′-dideoxycytidine, reference compound]		1.0	114		IC50 ([2]; Human immunodeficiency virus 1, read-out: Inhibitory Concentration): 300 nM
CC/C=C\C/C=C\C/C=C\C/C=C\C/C=C\C/C=C\CCC(=O)Nc1ccn([C@H]2CC[C@@H](COC(=O)CC/C=C\C/C=C\C/C=C\C/C=C\C/C=C\C/C=C\CC)O2)c(=O)n1 [DHA-ddC 9]	30	12.7			
